Assay type in all cases: functional, cell-based
Test [1] has as its target T1, 5-hydroxytryptamine receptor 6 (Homo sapiens, UniProt P50406). Kind of test: Antagonist activity at human recombinant 5HT6 receptor expressed in HeLa cells assessed as inhibition of 5HT-induced intracellular calcium level at 10 uM incubated for 15 mins prior to 5HT-induction measured after 1 hr by fluo-4-AM-based fluorimetry. A general note: Calcium flux is commonly read through the fluorescence of an indicator in the cells.

Test [2] concerns the target T1, 5-hydroxytryptamine receptor 6. Kind of test: Antagonist activity at human recombinant 5HT6 receptor expressed in HeLa cells assessed as inhibition of 5HT-induced intracellular calcium level incubated for 15 mins prior to 5HT-induction measured after 1 hr by fluo-4-AM-based fluorimetry.
The target is the same in test [3]. Kind of test: Antagonist activity at human 5HT6 receptor expressed in HEK293 cells assessed as inhibition of 5HT-induced intracellular calcium level at 10 uM incubated for 15 mins prior to 5HT-induction measured after 1 hr by fluo-4-AM-based fluorimetry.
Test [4] has as its target 5-hydroxytryptamine receptor 4 (Homo sapiens) (UniProt Q13639). Kind of test: Antagonist activity at human 5HT4 receptor expressed in HEK293 cells assessed as inhibition of 5HT-induced intracellular calcium level at 10 uM incubated for 15 mins prior to 5HT-induction measured after 1 hr by fluo-4-AM-based fluorimetry.
The target in test [5] is 5-hydroxytryptamine receptor 7 (Homo sapiens) (UniProt P34969). Kind of test: Antagonist activity at human 5HT7 receptor expressed in HEK293 cells assessed as inhibition of 5HT-induced intracellular calcium level at 10 uM incubated for 15 mins prior to 5HT-induction measured after 1 hr by fluo-4-AM-based fluorimetry.

Among the data in ChEMBL document CHEMBL2010752, “Synthesis and biological evaluation of benzoisothiazole derivatives possessing N,N-dimethylformimidamide group as 5-HT₆ receptor antagonists” (Bioorg Med Chem, 2012) are inhibition and IC50 values, retold here.

What is called inhibition is the share of the control response that was lost under treatment. What is called pIC50 is the negative decadic logarithm of the IC50, by convention in mol/L.

pIC50: −log10 of the molar value.

5-hydroxytryptamine receptor 7 (Homo sapiens), sequence (P34969 whole entry): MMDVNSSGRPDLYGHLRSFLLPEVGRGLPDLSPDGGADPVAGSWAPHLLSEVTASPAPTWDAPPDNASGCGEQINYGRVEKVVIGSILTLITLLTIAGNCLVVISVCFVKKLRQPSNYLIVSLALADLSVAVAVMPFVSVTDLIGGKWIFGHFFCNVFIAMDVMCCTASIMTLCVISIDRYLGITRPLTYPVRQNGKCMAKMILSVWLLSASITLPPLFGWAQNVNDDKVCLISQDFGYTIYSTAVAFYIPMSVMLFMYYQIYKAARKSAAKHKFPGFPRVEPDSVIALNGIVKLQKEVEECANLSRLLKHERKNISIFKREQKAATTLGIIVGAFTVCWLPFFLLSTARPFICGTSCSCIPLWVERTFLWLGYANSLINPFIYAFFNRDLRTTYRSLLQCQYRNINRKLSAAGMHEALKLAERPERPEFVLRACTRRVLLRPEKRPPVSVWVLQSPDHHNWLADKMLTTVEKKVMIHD
T1 sequence (P50406 whole entry): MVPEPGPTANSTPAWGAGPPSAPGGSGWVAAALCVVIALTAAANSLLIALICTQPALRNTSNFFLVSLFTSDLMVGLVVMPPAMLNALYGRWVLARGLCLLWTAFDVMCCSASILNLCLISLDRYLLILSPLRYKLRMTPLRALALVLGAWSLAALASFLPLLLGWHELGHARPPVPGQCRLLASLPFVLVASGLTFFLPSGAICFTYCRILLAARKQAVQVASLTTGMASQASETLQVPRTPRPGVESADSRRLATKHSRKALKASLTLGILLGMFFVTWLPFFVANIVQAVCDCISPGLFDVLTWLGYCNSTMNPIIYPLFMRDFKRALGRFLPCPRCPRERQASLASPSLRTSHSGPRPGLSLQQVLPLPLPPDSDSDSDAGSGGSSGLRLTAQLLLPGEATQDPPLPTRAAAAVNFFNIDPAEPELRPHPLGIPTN
5-hydroxytryptamine receptor 4 (Homo sapiens), sequence (Q13639 whole entry): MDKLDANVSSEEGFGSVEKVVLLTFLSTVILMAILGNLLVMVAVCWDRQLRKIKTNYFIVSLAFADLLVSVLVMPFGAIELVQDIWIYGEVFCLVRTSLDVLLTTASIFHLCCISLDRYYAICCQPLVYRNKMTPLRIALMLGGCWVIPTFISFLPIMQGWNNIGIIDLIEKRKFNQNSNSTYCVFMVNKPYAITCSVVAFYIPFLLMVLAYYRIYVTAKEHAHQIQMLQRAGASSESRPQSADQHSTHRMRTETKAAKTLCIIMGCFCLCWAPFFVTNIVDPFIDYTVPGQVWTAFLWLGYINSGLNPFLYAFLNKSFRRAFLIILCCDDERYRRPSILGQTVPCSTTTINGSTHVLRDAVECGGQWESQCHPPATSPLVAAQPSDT

In the case of `CN(C)/C=N/c1nc2cc(NS(=O)(=O)c3cccc4ccccc34)ccc2s1`, the inhibition in test [1] is 25.5%.

As for `CN(C)/C=N/c1nsc2ccc(NS(=O)(=O)c3ccc([N+](=O)[O-])cc3)cc12`, in test [1], the inhibition was 9.8%.

As to `CN(C)/C=N/c1nsc2ccc(NS(=O)(=O)c3c(F)cccc3F)cc12`, the inhibition in test [1] was determined as 10.8%.

With `CN(C)/C=N/c1nsc2ccc(NS(=O)(=O)c3ccc4ccccc4c3)cc12`, the inhibition came out at 99.1% in test [1], 98.8% in test [3], 17.4% in test [4] and 28.9% in test [5]. Further, in test [2], the pIC50 was 6.36.

On to `CN(C)/C=N/c1nsc2ccc(NS(=O)(=O)c3ccc(F)cc3)cc12`, for which the inhibition in test [1] was 20.2%.

Regarding `CN(C)/C=N/c1nsc2ccc(NS(=O)(=O)c3ccccc3)cc12`, the inhibition in test [1] was found to be 42.6%.

As to `CN(C)/C=N/c1nsc2ccc(NS(=O)(=O)c3cccc4cccnc34)cc12`, in test [1], the inhibition worked out at 12.1%.

For the compound `Cc1ccc(S(=O)(=O)Nc2ccc3snc(/N=C/N(C)C)c3c2)cc1`, the inhibition in test [1] came to 84.3%; in test [3] it was 86.5%; in test [4], 21.9%; in test [5], 68.8%. For the same compound, the pIC50 in test [2] is 6.44.

As to `CC(C)c1ccc(S(=O)(=O)Nc2ccc3snc(/N=C/N(C)C)c3c2)cc1`, in test [1], the inhibition came out at 27%.

In the case of `CN(C)/C=N/c1nc2cc(NS(=O)(=O)c3ccc4ccccc4c3)ccc2s1`, the inhibition in test [1] was 66.3%.

Consider `CN(C)/C=N/c1nsc2ccc(NS(=O)(=O)c3ccc(Cl)cc3)cc12`, for which the inhibition stood at 51.1% in test [1], 53.9% in test [3], 11.6% in test [4] and 40.2% in test [5]. For the same compound, the pIC50 in test [2] is 5.44.

With `CN(C)/C=N/c1nsc2ccc(NS(=O)(=O)c3cccc4ccccc34)cc12`, the inhibition in test [1] was 43.5%.
